Test results: article PMC4640556, “Primary Amine Oxidase of Escherichia coli Is a Metabolic Enzyme that Can Use a Human Leukocyte Molecule as a Substrate” (PLoS ONE, 2015)
Like-named read-outs stand apart in the source and are kept apart here.

Columns and labels:
ECAO [1] = target: T1, ECAO (Escherichia coli, UniProt P46883); test: ECAO activity with human granulocytes as sole substrate (Amplex Red, H2O2 production); assay type: biochemical; conditions: 30 nM ECAO, 200,000 granulocytes per well, 37°C, Cells + ECAO + SC, p = 0.004
T1 construct: made in house; host or cells: E. coli; inferred from the overexpression strain E. coli (pKK233-3-tynA)
Excerpt: To test if ECAO has a substrate on human granulocytes, we used purified recombinant protein ECAO, whose production and purification has been described. To collect human neutrophils, we extracted granulocytes from the fresh peripheral blood of healthy volunteers using Ficoll (GE Healthcare). We collected buffy coats according to standard procedure, lysed red blood cells with Pharm Lyse (BD Biosciences, Franklin Lakes, NJ, USA), washed with PBS, counted the cells, and used the cells immediately. The assay was conducted in 25 mM HEPES and 150 mM NaCl (pH 7.4), and we used 30 nM ECAO and 200,000 viable granulocytes per well. PEA was used as a positive control for the substrate, and the specific activity was determined using parallel wells with SC, as described above. The assay was conducted at 37°C. Three independent assays (different blood donors) were performed with duplicates.

[2] = test system: tynA+ E. coli and tynA- E. coli; test: Growth inhibition on LA plates (discs with SC); assay type: cell-based, Escherichia coli; conditions: data not shown
Procedure: (§1) To assess the effect of inhibitors on bacterial growth, discs with different concentrations of SC were placed on LA plates freshly plated with either tynA+ E. coli (three different strains) or tynA- E. coli (five strains). The inhibition zones were measured the next day. For the growth inhibition assay in a liquid medium, the same strains were cultured in tryptic soy broth (TSB) medium for 14–16 h. Then, 10^3 cells were inoculated into TSB medium with different concentrations (0–100 mg/mL) of SC and cultured further at 37°C with shaking at 100 rpm until the following day. Then, 10 μL of bacterial mixture was plated on lactose medium plates, and the plates were incubated at 37°C for 14–16 h before counting the colonies.

ECAO [3] = target: T1, ECAO; test: ECAO inhibitor test (spectroscopic amine oxidase activity assay, purified ECAO, substrate PEA); assay type: biochemical; conditions: for IC50: purified ECAO; for decrease of ECAO activity by aminoglycoside: aminoglycoside 1 mM (Fig 2C), sisomycin p = 0.06
Procedure: To determine the effect of different inhibitors on ECAO activity, we used purified ECAO protein and a spectroscopic amine oxidase activity assay, which is not as sensitive to additives as the Amplex Red assay. In short, 21 ng of ECAO protein was incubated with differing amounts of inhibitors in Krebs-Ringer phosphate glucose buffer for 20 min at 30°C. After incubation, we added substrate (0.5 mM PEA) and a mixture of 1 mM vanillic acid, 0.5 mM 4-aminopyridine, and 16 U of horseradish peroxidase, and measured the A492nm immediately and hourly thereafter.

ΔtynA strain = test: Growth inhibition assay in liquid medium, ΔtynA / tynA- strains; assay type: cell-based, Escherichia coli; conditions: liquid medium (S5 Fig)
Procedure: as §1
(§2) The inhibition of growth by a selective hydrazine-based human amine oxidase inhibitor, BTT-2052 [30], and SC on tynA+ and tynA- strains was tested similarly in M9-lactose-PEA medium using inhibitor concentrations of 0–0.5 mM.

ECAO [4] = target: T1, ECAO; design: method as in PMID 7765483; conditions: cited from earlier work
wt E. coli (tynA+) = test: Growth inhibition assay in liquid medium, wt / tynA+ strains; assay type: cell-based, Escherichia coli; conditions: SC concentrations lower than 5–10 mM (S5 Fig)
Procedure: as §1, §2

[5] = PEA, aminoglycoside concentrations 10 μM–10 mM, read-out: half maximal inhibitory concentration (IC50) of aminoglycosides on ECAO activity on PEA

T1 sequence (P46883 31-757): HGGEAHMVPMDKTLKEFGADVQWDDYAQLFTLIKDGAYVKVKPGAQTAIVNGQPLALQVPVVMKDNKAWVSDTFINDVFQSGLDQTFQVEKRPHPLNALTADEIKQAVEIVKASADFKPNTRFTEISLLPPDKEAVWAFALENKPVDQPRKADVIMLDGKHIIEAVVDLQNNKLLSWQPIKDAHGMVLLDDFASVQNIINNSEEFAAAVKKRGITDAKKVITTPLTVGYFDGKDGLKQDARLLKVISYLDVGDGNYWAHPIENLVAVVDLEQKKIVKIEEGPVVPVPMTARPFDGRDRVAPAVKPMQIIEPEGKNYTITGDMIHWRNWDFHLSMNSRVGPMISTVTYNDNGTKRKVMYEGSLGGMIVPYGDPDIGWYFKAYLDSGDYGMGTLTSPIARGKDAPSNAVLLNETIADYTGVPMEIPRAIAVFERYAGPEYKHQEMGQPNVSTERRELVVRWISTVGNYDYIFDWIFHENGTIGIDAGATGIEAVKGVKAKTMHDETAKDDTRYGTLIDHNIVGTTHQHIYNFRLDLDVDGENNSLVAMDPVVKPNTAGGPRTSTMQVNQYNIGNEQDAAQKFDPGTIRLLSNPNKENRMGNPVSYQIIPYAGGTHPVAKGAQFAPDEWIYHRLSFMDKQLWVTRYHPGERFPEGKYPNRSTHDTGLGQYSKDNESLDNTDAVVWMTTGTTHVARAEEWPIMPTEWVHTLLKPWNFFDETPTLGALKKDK

Compound | effect on ECAO activity (ECAO [4]) | decrease of ECAO activity by aminoglycoside (ECAO [3]) | IC50 (ECAO [3]; [5]) | also measured
NNC(N)=O [SC, semicarbazide] | inhibited |  |  | effect on H2O2 production by ECAO with granulocytes as only source of substrate (ECAO [1]): inhibited; effect on bacterial growth on LA plates ([2]; at 100 mg/mL): minimal; effect on bacterial growth on LA plates ([2]; under the concentration of 100 mg/mL): no effect; IC50 (ECAO [3]; 0.5 mM PEA, seven inhibitor concentrations 0.1–10 μM, 30°C, read-out: half maximal inhibitory concentration (IC50) on ECAO activity on PEA): 0.7 µM; effect on growth of the ΔtynA strain (ΔtynA strain): no effect; effect on growth in liquid rich media (wt E. coli (tynA+)): no significant effect
NCC[C@H](O)C(=O)N[C@@H]1C[C@H](N)[C@@H](O[C@H]2O[C@H](CN)[C@@H](O)[C@H](O)[C@H]2O)[C@H](O)[C@H]1O[C@H]1O[C@H](CO)[C@@H](O)[C@H](N)[C@H]1O [amikacin] |  | 23–61% | 1000 µM | 
NO [hydroxylamine] | inhibited |  |  | 
CC(C)NNC(=O)c1ccncc1 [iproniazid] | inhibited |  |  | 
NC[C@H]1O[C@H](O[C@H]2[C@H](O)[C@@H](O[C@H]3O[C@H](CO)[C@@H](O)[C@H](N)[C@H]3O)[C@H](N)C[C@@H]2N)[C@H](O)[C@@H](O)[C@@H]1O [kanamycin] |  | 23–61% | 3800 µM | 
NNCCc1ccccc1 [phenelzine] | inhibited |  |  | 
CN[C@@H]1[C@@H](O)[C@@H](O[C@@H]2[C@@H](O)[C@H](O[C@H]3OC(CN)=CC[C@H]3N)[C@@H](N)C[C@H]2N)OC[C@]1(C)O [sisomycin] |  | 23–61% |  | 
NC[C@H]1O[C@H](O[C@H]2[C@H](O)[C@@H](O[C@H]3O[C@H](CO)[C@@H](O)[C@H](N)[C@H]3O)[C@H](N)C[C@@H]2N)[C@H](N)C[C@@H]1O [tobramycin] |  | 23–61% | 800 µM | 
N[C@@H]1C[C@H]1c1ccccc1 [tranycypromine] | inhibited |  |  | 
Gentamycin |  | no effect |  | 
